Source: publication PMC5654082 (Malaria Journal, 2017)
Structures can show the parent of a compound that is named as a salt.

Target: T1, human OCT1 (Homo sapiens, UniProt O15245)
T1 construct: host or cells: HEK293, baculovirus transduction (CMV promoter), transient
T1 sequence (O15245 1-554): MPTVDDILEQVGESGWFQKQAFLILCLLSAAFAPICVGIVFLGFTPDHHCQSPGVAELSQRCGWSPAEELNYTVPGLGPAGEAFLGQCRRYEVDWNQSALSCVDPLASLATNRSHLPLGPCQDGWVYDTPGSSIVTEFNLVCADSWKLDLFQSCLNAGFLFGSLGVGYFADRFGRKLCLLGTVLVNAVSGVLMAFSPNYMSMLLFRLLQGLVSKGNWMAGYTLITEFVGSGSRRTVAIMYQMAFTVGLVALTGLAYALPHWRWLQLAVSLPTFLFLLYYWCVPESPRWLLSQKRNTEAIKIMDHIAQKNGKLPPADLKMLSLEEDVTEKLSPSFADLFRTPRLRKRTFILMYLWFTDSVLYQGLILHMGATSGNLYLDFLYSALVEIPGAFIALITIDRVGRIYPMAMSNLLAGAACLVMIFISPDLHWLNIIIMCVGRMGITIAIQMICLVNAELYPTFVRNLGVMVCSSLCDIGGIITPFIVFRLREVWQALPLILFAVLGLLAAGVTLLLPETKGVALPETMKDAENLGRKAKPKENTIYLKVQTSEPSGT
Assay: Inhibition of OCT1-mediated ASP uptake in transduced HEK293 cells
Type: cell-based
Details: 50 µM anti-malarial, 10 µM ASP, 10 min, 37 °C; relative to solvent control fixed at 100%
Description: HEK293 cells were modified to transiently express (a combination of) human OCT1, OCT2, MATE1, MATE2-K, or eYFP. Briefly, cDNA of the respective genes was cloned downstream of a CMV promoter into a baculovirus, of which passage three was used to transduce HEK293 cells. These cells were seeded in poly-D-lysine coated 24- or 96-wells plates and grown in a 37 °C incubator at 5% CO2. Growth was initiated at ~ 25% confluency using 375 or 125 μL cell and complete medium (DMEM + GlutaMAX™-I supplemented with 10% fetal bovine serum) suspension per well, respectively. After 24 h, cells were transduced with 30 µL virus (10 µL virus + 20 µL complete medium in case of 96-wells plates) or 2 × 15 µL virus for cells that required simultaneous expression of two transporters. Finally, 195 µL sodium butyrate (45 µL for 96-wells plates) was added to a final concentration of 2 mM to enhance protein expression.
AMO (10 mM), ASP (1 mM), CQ (10 mM), PQ (10 mM) and PG (10 mM) were dissolved in MilliQ water. ART (10 mM), ATO (10 mM), DHA (10 mM), LUM (10 mM), MQ (10 mM), NMQ (20 mM), PYR (10 mM), QN (10 mM) were dissolved in DMSO. All compound stocks were stored at − 20 °C. Inhibition of OCT1- or OCT2-mediated ASP uptake by anti-malarials was performed in poly-D-lysine coated 96-wells plates 2 or 3 days following HEK293 cell transduction. In short, cells were washed with 125 µL 37 °C HBSS containing 10 mM HEPES, pH 7.4. Then, a 50 µL mixture of ASP (10 µM) and anti-malarial compound (25, 50 or 100 µM) in HBSS buffer (pH 7.4) was added to each well and incubated for 10 min at 37 °C. ASP transport was stopped by washing with 125 µL ice-cold HBSS-HEPES buffer supplemented with 0.5% BSA. Following a second wash with 125 µL ice-cold HBSS-HEPES buffer, cells were lysed with 125 µL 1 M NaOH and ASP was excited at a wavelength of 485 nm and fluorescence was detected at an emission wavelength of 535 nm using the Victor X3 multimode plate reader.
For each compound, a range of seven concentrations was used to determine the concentration at which ASP uptake was inhibited half maximally (IC50). At least three independent experiments (4 for QN) were performed for each drug in triplicate as described above. Inhibition curves were plotted by nonlinear regression analyses of the data using GraphPad Prism version 5.03. […] To generate the final dose–response inhibition curve per anti-malarial, percentage of uptake was averaged for each drug concentration per experiment and the resulting mean ± SEM corresponding to three or four independent experiments were plotted.

## [H]/N=C(\N/C(=N/[H])Nc1ccc(Cl)cc1)NC(C)C [Proguanil, proguanil hydrochloride]
  Relative ASP uptake (OCT1-mediated): 60 ± 7%
